Measured values as given in paper PMC7482066, “Unstable Mechanisms of Resistance to Inhibitors of Escherichia coli Lipoprotein Signal Peptidase” (mBio, 2020).
In brackets after ≈: the same amount, converted by molar mass.

Tests used:
[1] = system: G0790-resistant E. coli CFT073; experiment: MIC against G0790-resistant CFT073 strains; format: cell-based
Procedure: MICs of compounds in each strain were determined in cation-adjusted Mueller-Hinton II (MHII) broth or MHII agar according to the Clinical and Laboratory Standards Institute protocol (CLSI 2006). To measure the effect of protein binding on activity, MIC assays were performed in the presence of 50% heat-inactivated human serum. The serum killing assay was performed as described previously ([43]). FOR assays and growth on plates containing G0790 were always performed on MHII agarose plates.
Frequencies of resistance (FORs) of G0790 were determined for E. coli CFT073, E. cloacae (ATCC 13047), and K. pneumoniae (ATCC 700603) as previously published ([70]). To determine the FOR, 3 to 4 colonies of the strain to be tested were picked from a fresh plate and diluted to an optical density at 600 nm (OD600) of 0.00001 in 1 ml of cation-adjusted MHBII. Ten independent 5-ml cultures in MHBII were prepared by inoculating 5 μl (approximately 1 × 10^3 CFU) and incubated at 37°C for 18 h. The bacteria were pelleted by centrifugation at 4000 × g at 4°C for 15 min and resuspended in 0.5 ml fresh MHBII. Two hundred fifty microliters of the bacterial suspension was plated evenly on MHII agarose plates containing globomycin or G0790 at a final concentration of 4× and 8× MIC. In parallel, CFU from each independent culture was measured by spotting 10-fold serial dilutions on MHII agar plates and incubated at 37°C for 18 h. Colonies were counted at days 1, 2, and 3 postinoculation. FOR was calculated as the ratio of the total number of resistant colonies relative to the total CFU plated. For strains that had no resistant colonies growing on plates, the p0 method was used to calculate the FOR (FOR = m/total CFU plated, where m = −ln p0 and p0 is the proportion of cultures with no mutants; 0.7 ≥ p0 ≥ 0.1), as described previously ([71]). Colonies were picked and resuspended in 30 μl MHBII broth medium, and 10 μl was plated on an MHII agar plate containing G0790 to be used to determine the MIC. Of the remaining 20 μl, half was used to inoculate 1.5 ml MHBII broth medium containing G0790 and grown at 37°C for 18 h to generate cell lysates for Western blot analysis, isolate genomic DNA (gDNA) for whole-genome sequencing, and for frozen glycerol stocks.

G0790-resistant CFT073 = experiment: MIC after in vitro passaging of G0790-resistant strains; format: cell-based, E. coli; settings: in words
Procedure: This bacterial culture is referred to as passage 1 (P1). […] For each passage, MICs were measured and cell lysates and genomic DNA were prepared for Western blot and whole-genome sequencing analyses, respectively.

Lpp = Lpp localization in peptidoglycan-associated and membrane fractions, Western blot; format: cell-based, E. coli; settings: CFT073, 2× MIC G0790
Procedure: Purification of peptidoglycan-associated proteins (PAPs) was performed according to published methods ([43], [67], [68]) with some modifications. Briefly, bacteria were harvested in mid-exponential phase for treatment and then subjected to PAP extraction by resuspending cell pellets from an optical density (OD; A600) of 10 in 6 ml of PAP extraction buffer containing 2% (wt/vol) SDS in 100 mM Tris-HCl (pH 8.0) with 100 mM NaCl, 10% glycerol, and cOmplete mini EDTA-free protease inhibitor cocktail (Sigma-Aldrich). After 60 min at room temperature (RT), the extraction was subjected to centrifugation at 100,000 × g for 60 min at 22°C, and the pellet, containing peptidoglycan-associated proteins, was washed once with the same PAP extraction buffer with centrifugation at 100,000 × g for 30 min and resuspended in 200 μl of PAP extraction buffer (referred to as the SDS-insoluble or PAP fraction). The supernatant containing the SDS-soluble fraction was aliquoted and frozen (referred to as the non-PAP fraction). Both fractions were treated with equal volumes of BugBuster buffer prior to the addition of sample buffer for Western immunoblotting as described above.
The inner and outer membrane fractionations of bacterial cells were performed according to published methods ([69]), with some modifications. […]

SMILES: CCCCCC[C@H]1OC(=O)CNC(=O)[C@H]([C@H](C)O)NC(=O)[C@H](CN)NC(=O)[C@H](C2CCCCC2)NC(=O)[C@H](CCC)N(C)C(=O)[C@@H]1C [G0790]
- MIC ([1]; CFT073 4×-R1, ISEc10-istB insertion (3′ of lpp)): 19.5 µg/mL (≈ 29.2 µM)
- MIC ([1]; CFT073 4×-R2, Lpp p.Asp54fs, Non-lspA_GA): 19.5 µg/mL (≈ 29.2 µM)
- MIC ([1]; CFT073 4×-R3, lspA_GA): 19.5 µg/mL (≈ 29.2 µM)
- MIC ([1]; CFT073 4×-R4, lpp deletion, Non-lspA_GA): 19.5 µg/mL (≈ 29.2 µM)
- MIC ([1]; CFT073 4×-R6, ISEc10-istB insertion (3′ of lpp)): 39 µg/mL (≈ 58.5 µM)
- MIC ([1]; CFT073 4×-R7, ISEc10-istB insertion (3′ of lpp), Non-lspA_GA): 39 µg/mL (≈ 58.5 µM)
- MIC ([1]; CFT073 4×-R9, lpp deletion): 19.5 µg/mL (≈ 29.2 µM)
- MIC ([1]; CFT073 4×-R10, lspA_GA): 19.5 µg/mL (≈ 29.2 µM)
- MIC ([1]; CFT073 8×-R1, lspA_GA): 19.5 µg/mL (≈ 29.2 µM)
- MIC ([1]; CFT073 8×-R3, 5′ lpp deletion, Non-lspA_GA): 39 µg/mL (≈ 58.5 µM)
- MIC ([1]; CFT073 8×-R4, lpp deletion): 39 µg/mL (≈ 58.5 µM)
- MIC ([1]; CFT073 8×-R5, ISEc10-istB insertion (5′ of lpp), lspA_GA): 39 µg/mL (≈ 58.5 µM)
- MIC ([1]; CFT073 8×-R6, lpp deletion, Non-lspA_GA): 19.5 µg/mL (≈ 29.2 µM)
- MIC after passaging in the absence of G0790, lspA_GA mutants (G0790-resistant CFT073; 4×-R3, 4×-R10, 8×-R1, 8×-R5, 3 days): comparable to the MIC of the parental WT strain
- Phenotype after passaging in the absence of G0790, 8×-R5 (G0790-resistant CFT073; 8×-R5 (GA and ISEc10-istB insertion upstream of lpp)): reverted to the WT phenotype
- Resistance after passaging in the absence of G0790, lpp insertion (downstream) or lpp deletion strains (G0790-resistant CFT073; 3 days): maintained resistance to G0790
- Lpp localization after treatment (Lpp): loss of the peptidoglycan-associated form of Lpp in the outer membrane and its accumulation in the inner membrane
